# Reference: PMC8343220, “The selectivity of α‐adrenoceptor agonists for the human α1A, α1B, and α1D‐adrenoceptors” (Pharmacology Research & Perspectives, 2021)
# Read-outs that look alike come from different tables or passages of the source.
# Tests used:
# human α1A‐adrenoceptor [1] = biological target: T1, human α1A‐adrenoceptor (Homo sapiens, UniProt P35348); assay: ^3H‐prazosin whole‐cell radioligand binding, CHO‐α1A cells
# T1 construct: expressed in transfected cells; host or cells: CHO-K1
# T1 sequence (P35348 1-466): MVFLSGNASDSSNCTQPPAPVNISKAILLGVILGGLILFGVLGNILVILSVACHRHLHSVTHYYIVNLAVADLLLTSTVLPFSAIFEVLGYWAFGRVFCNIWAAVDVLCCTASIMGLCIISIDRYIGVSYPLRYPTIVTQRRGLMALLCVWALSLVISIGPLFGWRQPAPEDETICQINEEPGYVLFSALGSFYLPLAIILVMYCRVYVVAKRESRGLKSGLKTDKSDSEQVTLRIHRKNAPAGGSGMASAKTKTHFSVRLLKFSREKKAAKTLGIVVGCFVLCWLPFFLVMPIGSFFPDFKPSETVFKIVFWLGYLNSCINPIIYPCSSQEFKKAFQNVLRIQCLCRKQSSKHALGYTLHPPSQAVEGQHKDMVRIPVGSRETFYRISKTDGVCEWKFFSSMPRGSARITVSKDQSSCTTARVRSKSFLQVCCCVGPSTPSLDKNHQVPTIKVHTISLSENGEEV
# human α1B‐adrenoceptor [2] = biological target: T2, human α1B‐adrenoceptor (Homo sapiens, UniProt P35368); assay: ^3H‐prazosin whole‐cell radioligand binding, CHO‐α1B cells; conditions: CHO‐α1B cells
# T2 construct: expressed in transfected cells; host or cells: CHO-K1
# T2 sequence (P35368 1-520): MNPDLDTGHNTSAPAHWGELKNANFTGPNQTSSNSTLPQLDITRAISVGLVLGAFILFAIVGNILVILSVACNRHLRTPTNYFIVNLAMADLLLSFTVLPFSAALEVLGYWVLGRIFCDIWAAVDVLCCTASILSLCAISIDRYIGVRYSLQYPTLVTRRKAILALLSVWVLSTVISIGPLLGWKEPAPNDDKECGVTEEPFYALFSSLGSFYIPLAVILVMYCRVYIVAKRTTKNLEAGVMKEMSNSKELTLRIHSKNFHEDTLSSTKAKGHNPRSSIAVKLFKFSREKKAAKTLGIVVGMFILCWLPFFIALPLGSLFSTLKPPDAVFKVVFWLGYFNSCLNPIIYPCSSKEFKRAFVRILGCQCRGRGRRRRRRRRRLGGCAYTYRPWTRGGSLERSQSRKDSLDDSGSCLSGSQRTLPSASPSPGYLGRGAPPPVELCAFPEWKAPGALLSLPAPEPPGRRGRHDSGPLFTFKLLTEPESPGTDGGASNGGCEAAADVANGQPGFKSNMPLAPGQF
# [3] = biological target: T3, human α1D‐adrenoceptor (full length) (Homo sapiens, UniProt P25100); assay: ^3H‐prazosin whole‐cell radioligand binding, CHO‐α1D cells
# T3 construct: human α1D‐adrenoceptor (full length) were used; expressed in transfected cells; host or cells: CHO-K1
# T3 sequence (P25100 1-572): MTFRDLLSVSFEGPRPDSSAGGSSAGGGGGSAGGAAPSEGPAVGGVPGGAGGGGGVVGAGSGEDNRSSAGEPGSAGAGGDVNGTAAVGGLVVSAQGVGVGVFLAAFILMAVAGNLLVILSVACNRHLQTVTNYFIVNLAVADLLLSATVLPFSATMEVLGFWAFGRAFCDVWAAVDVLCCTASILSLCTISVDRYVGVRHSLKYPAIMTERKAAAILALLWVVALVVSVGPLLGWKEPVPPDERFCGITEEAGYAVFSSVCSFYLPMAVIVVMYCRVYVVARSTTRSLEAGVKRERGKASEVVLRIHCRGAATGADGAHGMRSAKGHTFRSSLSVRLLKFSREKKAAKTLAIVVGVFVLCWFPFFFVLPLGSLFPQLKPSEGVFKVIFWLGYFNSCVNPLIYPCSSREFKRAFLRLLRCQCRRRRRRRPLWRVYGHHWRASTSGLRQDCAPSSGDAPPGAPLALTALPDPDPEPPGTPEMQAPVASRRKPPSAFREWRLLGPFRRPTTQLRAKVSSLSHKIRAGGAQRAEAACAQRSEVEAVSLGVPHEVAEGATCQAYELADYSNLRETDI
# human α1A‐adrenoceptor [4] = biological target: T1, human α1A‐adrenoceptor; assay: Intracellular free calcium mobilization, CHO‐α1A cells; type: cell-based
# human α1B‐adrenoceptor [5] = biological target: T2, human α1B‐adrenoceptor; assay: Intracellular free calcium mobilization, CHO‐α1B cells; type: cell-based; conditions: CHO‐α1B cells
# [6] = biological target: T3, human α1D‐adrenoceptor (full length); assay: Intracellular free calcium mobilization, CHO‐α1D cells; type: cell-based
# human α1A‐adrenoceptor [7] = biological target: T1, human α1A‐adrenoceptor; assay: ERK1/2‐phosphorylation (Surefire Alphascreen), CHO‐α1A cells; type: cell-based
# human α1B‐adrenoceptor [8] = biological target: T2, human α1B‐adrenoceptor; assay: ERK1/2‐phosphorylation (Surefire Alphascreen), CHO‐α1B cells; type: cell-based; conditions: CHO‐α1B cells, for bi‐phasic responses the initial stimulatory part
# [9] = biological target: T3, human α1D‐adrenoceptor (full length); assay: ERK1/2‐phosphorylation (Surefire Alphascreen), CHO‐α1D cells; type: cell-based
# human α1A‐adrenoceptor [10] = biological target: T1, human α1A‐adrenoceptor; assay: ^3H‐cAMP accumulation, CHO‐α1A cells; type: cell-based; conditions: CHO‐α1A cells; for cAMP accumulation % forskolin: % of 10 µM forskolin response
# human α1B‐adrenoceptor [11] = biological target: T2, human α1B‐adrenoceptor; assay: ^3H‐cAMP accumulation, CHO‐α1B cells; type: cell-based; conditions: CHO‐α1B cells
# [12] = biological target: T3, human α1D‐adrenoceptor (full length); assay: ^3H‐cAMP accumulation, CHO‐α1D cells; type: cell-based; conditions: cAMP accumulation without forskolin
# human α1A‐adrenoceptor [13] = biological target: T1, human α1A‐adrenoceptor; assay: ^3H‐cAMP accumulation in the presence of 10 μM forskolin, CHO‐α1A cells; type: cell-based; conditions: CHO‐α1A cells
# human α1B‐adrenoceptor [14] = biological target: T2, human α1B‐adrenoceptor; assay: ^3H‐cAMP accumulation in the presence of 10 μM forskolin, CHO‐α1B cells; type: cell-based; conditions: CHO‐α1B cells
# [15] = biological target: T3, human α1D‐adrenoceptor (full length); assay: ^3H‐cAMP accumulation in the presence of 10 μM forskolin, CHO‐α1D cells; type: cell-based; conditions: CHO‐α1D cells; for cAMP (in presence of forskolin) Log EC50: log values given negative
# [16] = tested on: parental CHO cell line without any transfected receptors; assay: Intracellular calcium mobilization, parent CHO cells without transfected receptors; type: cell-based, Chinese hamster; conditions: Cricetulus griseus; CHO cells without transfected receptors; response at maximum concentration used (c2), as % of ionomycin (10μM) response; mean ± s.e.m.; read-out: Intracellular calcium release % ionomycin
# [17] = tested on: parental CHO cell line without any transfected receptors; assay: ERK1/2‐phosphorylation, parent CHO cells without transfected receptors; type: cell-based, Chinese hamster; conditions: Cricetulus griseus, CHO; read-out: ERK1/2-phosphorylation % PDBu at 100μM
# [18] = tested on: parental CHO cell line without any transfected receptors; assay: Forskolin‐stimulated cAMP accumulation, parent CHO cells without transfected receptors; type: cell-based, Chinese hamster; conditions: CHO cells without transfected receptors; in presence of forskolin
# [19] = CHO‐α1D cells, log values given negative
# [20] = fold increase of the forskolin response
compound,measurement,setting,value
CCc1cccc(CC)c1NC1=NCCN1 [ST‐91],"Log KD α1A, ^3H‐prazosin whole cell binding","human α1A‐adrenoceptor [1]; CHO‐α1A cells, given as log KD (negative), mean ± SEM",−5.94 ± 0.01
same,Affinity selectivity ratio α1A vs α1B,human α1A‐adrenoceptor [1]; higher affinity for α1A than α1B,35.5 fold
same,Affinity selectivity ratio α1A vs α1D,human α1A‐adrenoceptor [1]; higher affinity for α1A than α1D,5.0 fold
same,"Log KD, ^3H‐prazosin binding","human α1B‐adrenoceptor [2]; whole‐cell binding (from Table 1), given as log KD (negative numbers)",−4.39
same,"Log KD α1B, ^3H‐prazosin whole cell binding","human α1B‐adrenoceptor [2]; given as log KD (negative), mean ± SEM",−4.39 ± 0.04
same,3H‐prazosin binding Log KD,"[3]; CHO‐α1D cells, whole‐cell binding (from Table 1), log values given negative",−5.24
same,"Log KD α1D, ^3H‐prazosin whole cell binding","[3]; CHO‐α1D cells, given as log KD (negative), mean ± SEM, 'early plateau' = specific binding not fully inhibited",−5.24 ± 0.09
same,Affinity selectivity ratio α1B vs α1D,[3]; higher affinity for α1D than α1B,7.1 fold
same,Log efficacy ratio KD /EC50,"human α1A‐adrenoceptor [4]; CHO‐α1A cells, binding KD and calcium EC50",3.14
same,Intracellular calcium release Log EC50,"human α1A‐adrenoceptor [4]; CHO‐α1A cells, given as log EC50 (negative)",−9.08 ± 0.11
same,Intracellular calcium release % ionomycin,"human α1A‐adrenoceptor [4]; CHO‐α1A cells, maximal response as % of 10 µM ionomycin",64.6 ± 2.6%
same,Intracellular calcium release Log EC50,human α1B‐adrenoceptor [5]; given as log EC50 (negative numbers),−8.13 ± 0.17
same,Log efficacy ratio KD /EC50,"human α1B‐adrenoceptor [5]; intrinsic efficacy ratio, KD from binding / EC50 calcium, log",3.74
same,Intracellular calcium release % ionomycin,human α1B‐adrenoceptor [5]; maximal response as % of 10 µM ionomycin response,62.0 ± 2.1%
same,Log efficacy ratio KD /EC50,"[6]; CHO‐α1D cells, intrinsic efficacy ratio, binding KD / calcium EC50",1.10
same,Intracellular calcium release Log EC50,[6]; [19],−6.34 ± 0.15
same,Intracellular calcium release % ionomycin,"[6]; CHO‐α1D cells, maximal response as % of 10 µM ionomycin",6.3 ± 1.6%
same,ERK1/2‐phosphorylation Log EC50,"human α1A‐adrenoceptor [7]; CHO‐α1A cells, 2–4 min, ^a bi‐phasic: initial stimulatory part, ^b also active in parent CHO cells",−8.70 ± 0.06
same,ERK1/2‐phosphorylation % PDBu,"human α1A‐adrenoceptor [7]; CHO‐α1A cells, % of 10 µM PDBu, ^a bi‐phasic: initial stimulatory part",79.5 ± 5.2%
same,ERK1/2‐phosphorylation Log EC50,human α1B‐adrenoceptor [8],−7.33 ± 0.12
same,ERK1/2‐phosphorylation % PDBu,human α1B‐adrenoceptor [8]; maximal response as % PDBu response,83.6 ± 8.9%
same,ERK1/2‐phosphorylation Log EC50,[9]; [19],−5.23 ± 0.21
same,ERK1/2‐phosphorylation % PDBu,"[9]; CHO‐α1D cells, maximal response as % of PDBu",21.1 ± 4.4%
same,cAMP accumulation Log EC50,human α1A‐adrenoceptor [10]; 5 h,−6.80 ± 0.05
same,cAMP accumulation % forskolin,human α1A‐adrenoceptor [10],108.2 ± 12.5%
same,cAMP accumulation Log EC50,human α1B‐adrenoceptor [11],−6.52 ± 0.04
same,cAMP accumulation % forskolin,human α1B‐adrenoceptor [11]; % forskolin maximum response,30.4 ± 3.5%
same,cAMP Log EC50,[12],No response
same,cAMP accumulation (in presence of forskolin) Log EC50,human α1A‐adrenoceptor [13]; 10 μM forskolin,−7.86 ± 0.14
same,cAMP accumulation (in presence of forskolin) Fold increase,human α1A‐adrenoceptor [13]; [20],2.17 ±.10 fold
same,cAMP accumulation (in presence of forskolin) Fold increase,human α1B‐adrenoceptor [14]; [20],2.34 ± 0.09 fold
same,cAMP accumulation (in presence of forskolin) Log EC50,human α1B‐adrenoceptor [14]; in presence of forskolin,−7.23 ± 0.07
same,cAMP (in presence of forskolin) Fold increase,[15]; [20],No response
same,cAMP (in presence of forskolin) Log EC50,[15],No response
N=C(N)N/N=C/c1c(Cl)cccc1Cl [Guanabenz],Kd,"human α1A‐adrenoceptor [1]; Log KD α1A, ^3H‐prazosin whole cell binding, CHO‐α1A cells, given as log KD (negative), mean ± SEM",331 nM
same,Kd,"[3]; 3H‐prazosin binding Log KD, CHO‐α1D cells, whole‐cell binding (from Table 1), log values given negative",955 nM
same,Kd,"[3]; Log KD α1D, ^3H‐prazosin whole cell binding, CHO‐α1D cells, given as log KD (negative), mean ± SEM, 'early plateau' = specific binding not fully inhibited",955 nM
same,Intracellular calcium release % ionomycin,human α1A‐adrenoceptor [4],17.8 ± 3.2%
same,EC50,"human α1A‐adrenoceptor [4]; CHO‐α1A cells, given as log EC50 (negative), read-out: Intracellular calcium release Log EC50 (converted)",110 nM
same,Intracellular calcium release % Ionomycin at 100 µM,[6],20.2 ± 5.1%
same,Emax,[16],23.5 ± 7.4%
same,ERK1/2‐phosphorylation % PDBu,human α1A‐adrenoceptor [7],68.4 ± 8.6%
same,EC50,"human α1A‐adrenoceptor [7]; CHO‐α1A cells, 2–4 min, ^a bi‐phasic: initial stimulatory part, ^b also active in parent CHO cells, read-out: ERK1/2‐phosphorylation Log EC50 (converted)",204 nM
same,ERK1/2‐phosphorylation % PDBu at 100 µM,[9],20.8 ± 6.6%
same,Emax at 100 µM,[17],8.5 ± 3.1%
same,EC50,"human α1A‐adrenoceptor [10]; 5 h, read-out: cAMP accumulation Log EC50 (converted)",1820 nM
same,cAMP accumulation % forskolin,human α1A‐adrenoceptor [10],2.1 ± 0.3%
same,cAMP Log EC50,[12],No response
same,EC50,"human α1A‐adrenoceptor [13]; 10 μM forskolin, read-out: cAMP accumulation (in presence of forskolin) Log EC50 (converted)",145 nM
same,cAMP (in presence of forskolin) Log EC50,[15],No response
same,cAMP accumulation (in presence of forskolin) Log EC50,[18],No response
